One assay concerns MOLM14 D835Y cells. In words: cells. The class given is cell-based. The following applies: 48 hours, Cell Titer Glo, read-out: MOLM14 D835Y IC50. Background: Cellular ATP, detected with luciferase, serves as a proxy for viable cell number.
The test system of a further assay is MOLM14 F691L cells. In words: cells. In kind it is cell-based. Particulars: 48 hours, Cell Titer Glo, read-out: MOLM14 F691L IC50.
Assay [1] has as its target T1, FLT3 (Homo sapiens, UniProt P36888).
T1 sequence (P36888 610-943 limits assumed): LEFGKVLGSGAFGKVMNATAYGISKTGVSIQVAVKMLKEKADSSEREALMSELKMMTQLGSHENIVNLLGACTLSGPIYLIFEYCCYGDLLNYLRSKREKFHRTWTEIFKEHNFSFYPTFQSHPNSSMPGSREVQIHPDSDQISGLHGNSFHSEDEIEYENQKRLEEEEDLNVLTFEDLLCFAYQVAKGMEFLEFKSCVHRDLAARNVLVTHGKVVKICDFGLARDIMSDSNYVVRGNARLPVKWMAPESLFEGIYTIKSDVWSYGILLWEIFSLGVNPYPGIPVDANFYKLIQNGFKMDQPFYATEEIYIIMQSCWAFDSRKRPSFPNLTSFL
Briefly: RBC HotSpot Kinase Assay, FLT3.

The next assay concerns the target IRAK1 (Homo sapiens, UniProt P51617). In words: RBC HotSpot Kinase Assay, IRAK1. Particulars: IRAK1 IC50.
In assay [2] the target is T2, IRAK4 (Homo sapiens, UniProt Q9NWZ3).
T2 sequence (Q9NWZ3 1-460): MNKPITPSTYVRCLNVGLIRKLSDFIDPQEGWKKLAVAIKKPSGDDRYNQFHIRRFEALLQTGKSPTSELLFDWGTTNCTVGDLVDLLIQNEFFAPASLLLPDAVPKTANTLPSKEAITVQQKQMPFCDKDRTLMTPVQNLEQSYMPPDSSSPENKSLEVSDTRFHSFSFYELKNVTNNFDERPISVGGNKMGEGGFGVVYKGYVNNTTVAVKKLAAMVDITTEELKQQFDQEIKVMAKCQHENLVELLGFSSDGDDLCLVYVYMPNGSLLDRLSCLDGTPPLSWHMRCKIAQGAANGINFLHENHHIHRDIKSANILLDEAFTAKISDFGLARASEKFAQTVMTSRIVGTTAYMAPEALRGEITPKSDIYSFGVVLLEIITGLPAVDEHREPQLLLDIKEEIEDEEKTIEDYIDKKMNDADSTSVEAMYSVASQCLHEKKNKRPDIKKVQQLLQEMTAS
In words: RBC HotSpot Kinase Assay, IRAK4. The following applies: IRAK4 IC50.

In assay [3] the target is T3, FLT3 (Homo sapiens, UniProt P36888).
T3 sequence (P36888 27-993): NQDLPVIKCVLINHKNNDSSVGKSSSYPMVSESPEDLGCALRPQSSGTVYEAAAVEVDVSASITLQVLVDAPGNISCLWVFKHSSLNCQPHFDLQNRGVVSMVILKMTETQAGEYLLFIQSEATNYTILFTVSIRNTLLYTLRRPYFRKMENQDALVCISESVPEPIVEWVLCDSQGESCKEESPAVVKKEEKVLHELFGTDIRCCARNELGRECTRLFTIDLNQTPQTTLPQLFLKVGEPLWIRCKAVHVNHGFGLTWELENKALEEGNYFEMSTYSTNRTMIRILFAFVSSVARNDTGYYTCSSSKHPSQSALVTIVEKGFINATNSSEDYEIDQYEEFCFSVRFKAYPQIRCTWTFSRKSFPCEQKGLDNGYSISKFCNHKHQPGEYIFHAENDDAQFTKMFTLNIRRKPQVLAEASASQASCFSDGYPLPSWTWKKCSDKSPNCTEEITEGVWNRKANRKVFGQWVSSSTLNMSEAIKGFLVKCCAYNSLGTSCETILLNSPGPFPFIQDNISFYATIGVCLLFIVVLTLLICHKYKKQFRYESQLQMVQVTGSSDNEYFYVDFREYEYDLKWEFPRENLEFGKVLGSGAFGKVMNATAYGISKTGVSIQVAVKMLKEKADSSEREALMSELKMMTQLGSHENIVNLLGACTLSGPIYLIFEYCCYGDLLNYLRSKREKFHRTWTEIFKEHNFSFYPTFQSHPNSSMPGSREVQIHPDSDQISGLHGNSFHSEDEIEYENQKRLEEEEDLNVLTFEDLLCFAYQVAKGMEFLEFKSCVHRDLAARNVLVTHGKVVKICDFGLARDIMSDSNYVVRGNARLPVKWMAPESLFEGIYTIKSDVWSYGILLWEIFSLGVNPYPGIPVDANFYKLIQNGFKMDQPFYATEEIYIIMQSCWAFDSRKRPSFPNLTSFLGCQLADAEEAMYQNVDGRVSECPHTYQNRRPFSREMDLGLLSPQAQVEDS
In words: Reaction Biology NanoBRET target engagement assay in HEK-293 cells, FLT3. In general terms: In BRET a luciferase serves as donor, and the signal depends on an acceptor being close.

Assay [4] deals with T2, IRAK4. In words: Reaction Biology NanoBRET target engagement assay in HEK-293 cells, IRAK4. The following applies: NanoBRET IRAK4 IC50, HEK-293 cells.
Where [5] appears, read: NanoBRET FLT3 IC50, HEK-293 cells.

Where two headings read alike, the source gives them in different places. Where only a bound is given, the exact number is not on record here.

IRAK1, sequence (P51617 whole entry): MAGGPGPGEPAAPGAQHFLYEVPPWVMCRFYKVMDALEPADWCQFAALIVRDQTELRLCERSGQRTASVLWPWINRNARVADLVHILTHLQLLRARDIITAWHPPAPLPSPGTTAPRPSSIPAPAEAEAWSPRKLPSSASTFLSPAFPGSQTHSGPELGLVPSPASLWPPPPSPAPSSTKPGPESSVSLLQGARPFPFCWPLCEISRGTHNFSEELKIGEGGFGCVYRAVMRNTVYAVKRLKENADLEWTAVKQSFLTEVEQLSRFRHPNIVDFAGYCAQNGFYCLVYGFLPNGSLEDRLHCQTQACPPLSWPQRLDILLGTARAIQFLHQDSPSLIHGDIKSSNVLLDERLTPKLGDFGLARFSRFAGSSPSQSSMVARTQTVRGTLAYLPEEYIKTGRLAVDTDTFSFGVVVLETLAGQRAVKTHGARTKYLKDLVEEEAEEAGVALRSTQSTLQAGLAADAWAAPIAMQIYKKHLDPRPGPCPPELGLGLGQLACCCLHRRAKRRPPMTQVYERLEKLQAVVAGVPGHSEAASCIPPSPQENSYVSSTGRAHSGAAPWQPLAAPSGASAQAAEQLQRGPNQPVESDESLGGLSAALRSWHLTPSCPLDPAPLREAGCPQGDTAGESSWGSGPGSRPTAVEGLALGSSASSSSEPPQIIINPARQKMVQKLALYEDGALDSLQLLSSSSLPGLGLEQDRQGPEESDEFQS

Usually IC50 stands for the concentration needed to halve the response being measured. Regarding `CC(O)(c1cn2c(-c3cncc(N[C@H]4CNCC[C@@H]4F)n3)cnc2cn1)C(F)(F)F` (single isomer, unassigned) [Compound 76], the IC50 is 486 nM in the assay with MOLM14 D835Y cells; 686 nM with MOLM14 F691L cells (Homo sapiens, MOLM-14, 48 h); less than 0.5 nM against FLT3 [1] (FLT3 IC50); 8 nM on IRAK1; 2 nM at IRAK4 [2]; 3860 nM against FLT3 [3] (setting [5]). The same compound registered an IC50 against IRAK4 [4] of 19 nM.

With `CC(C)Oc1ccn2c(-c3ccnc(N[C@@H]4CCCNC4)n3)cnc2c1` [Compound 26, (R)-4-(7-isopropoxyimidazo[1,2-a]pyridin-3-yl)-N-(piperidin-3-yl)pyrimidin-2-amine], the concentration for half-maximal inhibition (IC50) is 19 nM in the assay with MOLM14 D835Y cells (Homo sapiens, MOLM-14, 48 h); 168 nM with MOLM14 F691L cells (Homo sapiens, MOLM-14, 48 h); less than 0.5 nM against FLT3 [1] (FLT3 IC50); 53 nM against IRAK1; 2 nM at IRAK4 [2]; 2 nM against FLT3 [3] (setting [5]). The compound further displayed an IC50 against IRAK4 [4] of less than 0.5 nM.

As to `CC(O)(c1cn2c(-c3ccnc(N[C@H]4CNC[C@@H]4F)n3)cnc2cn1)C(F)(F)F` (single isomer, unassigned) [Compound 69], the IC50 with MOLM14 D835Y cells was 193 nM; in the assay on MOLM14 F691L cells (Homo sapiens, MOLM-14, 48 h), 1220 nM; on FLT3 [1] (FLT3 IC50) it was less than 0.5 nM; at IRAK1 it was 27 nM; against IRAK4 [2], 1 nM; at FLT3 [3] (setting [5]) it was 1950 nM. Moreover, the IC50 against IRAK4 [4] worked out at 24 nM.

For the compound `F[C@H]1CCNC[C@@H]1Nc1nccc(-c2cnc3cc(OC4CC4)ccn23)n1` [Compound 39, 4-(7-cyclopropoxyimidazo [1,2-a]pyridin-3-yl)-N-((3S,4S)-4-fluoropiperidin-3-yl)pyrimidin-2-amine], the IC50 in the assay with MOLM14 D835Y cells (Homo sapiens, MOLM-14, 48 h) is 24 nM; in the assay on MOLM14 F691L cells (Homo sapiens, MOLM-14, 48 h), 172 nM; on FLT3 [1] (FLT3 IC50) it was less than 0.5 nM; against IRAK1, 11 nM; at IRAK4 [2], 2 nM; on FLT3 [3] (setting [5]) it was 15 nM. This compound also yielded an IC50 on IRAK4 [4] of 0.8 nM.

For the compound `CC(C)(O)c1ccc2ncc(-c3ccnc(N[C@H]4CNCC[C@@H]4F)n3)n2c1` [Compound 42, 2-(3-(2-(((3S,4S)-4-fluoropiperidin-3-yl)amino)pyrimidin-4-yl)imidazo[1,2-a]pyridin-6-yl)propan-2-ol], the IC50 at FLT3 [1] (FLT3 IC50) is less than 0.5 nM; at IRAK1, 158 nM; at IRAK4 [2] it was 4 nM; against FLT3 [3] (setting [5]), 137 nM; on IRAK4 [4], 2 nM.

Turning to `COc1cc2ncc(-c3cncc(N[C@H]4CNCC[C@@H]4F)n3)n2cc1C(C)(C)O` [Compound 21, 2-(3-(6-(((3S,4S)-4-fluoropiperidin-3-yl)amino)pyrazin-2-yl)-7-methoxyimidazo[1,2-a]pyridin-6-yl)propan-2-ol], the IC50 in the assay on MOLM14 D835Y cells (Homo sapiens, MOLM-14, 48 h) is 27 nM; in the assay with MOLM14 F691L cells (Homo sapiens, MOLM-14, 48 h) it was 34 nM; on FLT3 [1] (FLT3 IC50), less than 0.5 nM; on IRAK1, 0.5 nM; at IRAK4 [2], less than 0.5 nM; against FLT3 [3] (setting [5]), 159 nM. Further, the IC50 against IRAK4 [4] is less than 0.5 nM.

For the compound `FC(F)COc1ccn2c(-c3cncc(N[C@H]4CNCC[C@@H]4F)n3)cnc2c1` [Compound 9, 6-(7-(2,2-difluoroethoxy)imidazo[1,2-a]pyridin-3-yl)-N-((3S,4S)-4-fluoropiperidin-3-yl)pyrazin-2-amine], the IC50 with MOLM14 D835Y cells (Homo sapiens, MOLM-14, 48 h) is 19 nM; with MOLM14 F691L cells (Homo sapiens, MOLM-14, 48 h), 31 nM; at FLT3 [1] (FLT3 IC50) it was less than 0.5 nM; at IRAK1, 65 nM; against IRAK4 [2] it was 1 nM; on FLT3 [3] (setting [5]), 22 nM. In addition, the IC50 against IRAK4 [4] is less than 0.5 nM.

Regarding `CC(C)(O)c1ccc2ncc(-c3cncc(N[C@H]4CNCC[C@@H]4F)n3)n2c1` [Compound 18, 2-(3-(6-(((3S,4S)-4-fluoropiperidin-3-yl)amino)pyrazin-2-yl)imidazo[1,2-a]pyridin-6-yl)propan-2-ol], the IC50 at FLT3 [1] (FLT3 IC50) was 1 nM; against IRAK1, 116 nM; against IRAK4 [2], 3 nM; on FLT3 [3] (setting [5]), 2820 nM; at IRAK4 [4], 0.8 nM.

Take `CC(O)(c1cn2c(-c3ccnc(N[C@@H]4CCCNC4)n3)cnc2cn1)C(F)(F)F` (single isomer, unassigned) [Compound 68]: the IC50 in the assay with MOLM14 D835Y cells was 86 nM; in the assay with MOLM14 F691L cells, 545 nM; at FLT3 [1] (read-out: FLT3 IC50), less than 0.5 nM; at IRAK1, 7 nM; at IRAK4 [2], 4 nM; against FLT3 [3], 388 nM. In addition, it took 3 nM to reach half-maximal inhibition against IRAK4 [4] (IC50).

As to `CC(C)Oc1ccn2c(-c3ccnc(N[C@H]4CNC[C@@H]4F)n3)cnc2c1` [Compound 25, N-((3S,4S)-4-fluoropyrrolidin-3-yl)-4-(7-isopropoxyimidazo[1,2-a]pyridin-3-yl)pyrimidin-2-amine], the IC50 turned out to be 53 nM with MOLM14 D835Y cells (Homo sapiens, MOLM-14, 48 h); 596 nM in the assay on MOLM14 F691L cells (Homo sapiens, MOLM-14, 48 h); 0.8 nM at FLT3 [1] (FLT3 IC50); 24 nM against IRAK1; 3 nM on IRAK4 [2]; 34 nM against FLT3 [3] (setting [5]). The IC50 at IRAK4 [4] is less than 0.5 nM.

Regarding `FC(F)Oc1ccn2c(-c3cncc(N[C@H]4CNCC[C@@H]4F)n3)cnc2c1` [Compound 15, 6-(7-(difluoromethoxy)imidazo [1,2-a]pyridin-3-yl)-N-((3S,4S)-4-fluoropiperidin-3-yl)pyrazin-2-amine], the IC50 is 77 nM in the assay with MOLM14 D835Y cells (Homo sapiens, MOLM-14, 48 h); 154 nM in the assay on MOLM14 F691L cells (Homo sapiens, MOLM-14, 48 h); less than 0.5 nM on FLT3 [1] (FLT3 IC50); 69 nM on IRAK1; 4 nM against IRAK4 [2]; 367 nM at FLT3 [3] (setting [5]). This compound returned an IC50 against IRAK4 [4] of 10 nM.

`CC(O)(c1cn2c(-c3ccnc(N[C@H]4CNCC[C@@H]4F)n3)cnc2cn1)C(F)(F)F` (single isomer, unassigned) [Compound 70]: the IC50 on FLT3 [1] (read-out: FLT3 IC50) was less than 0.5 nM; at IRAK1 it was 12 nM; against IRAK4 [2], 43 nM; at FLT3 [3] (setting [5]) it was 1120 nM; on IRAK4 [4], 29 nM.

Values taken from US20250154144A1 (CHILDREN'S HOSPITAL MEDICAL CENTER, priority 2021, published 2025).
